# Marks after values point to notes of the source that are not given here.
# What was measured:
# [1] = molecular target: T1, human PPARδ (Homo sapiens, UniProt Q03181); test: PPARδ agonist reporter assay (Gal4 hybrid receptor, luciferase, CHO cells); assay type: cell-based
# T1 construct: expressed in transfected cells; host or cells: CHO
# T1 sequence (Q03181 211-439 limits assumed): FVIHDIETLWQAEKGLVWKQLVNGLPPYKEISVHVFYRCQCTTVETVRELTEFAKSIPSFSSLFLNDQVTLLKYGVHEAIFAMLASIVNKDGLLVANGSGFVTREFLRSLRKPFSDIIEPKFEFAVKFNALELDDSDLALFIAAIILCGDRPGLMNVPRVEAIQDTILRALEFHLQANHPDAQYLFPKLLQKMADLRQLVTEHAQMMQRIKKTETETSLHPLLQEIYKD
# [2] = molecular target: T2, human PPARγ (Homo sapiens, UniProt P37231); test: PPARγ agonist reporter assay (Gal4 hybrid receptor, luciferase, CHO cells); assay type: cell-based
# T2 construct: expressed in transfected cells; host or cells: CHO
# T2 sequence (P37231 238-503 limits assumed): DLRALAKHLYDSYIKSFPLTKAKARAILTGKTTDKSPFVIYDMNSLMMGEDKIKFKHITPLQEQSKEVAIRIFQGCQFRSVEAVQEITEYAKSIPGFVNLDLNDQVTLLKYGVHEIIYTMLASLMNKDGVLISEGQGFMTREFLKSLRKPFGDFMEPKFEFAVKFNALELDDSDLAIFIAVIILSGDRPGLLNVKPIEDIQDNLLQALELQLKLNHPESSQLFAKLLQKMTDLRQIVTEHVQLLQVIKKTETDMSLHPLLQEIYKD
# [3] = test system: human NF-κB; test: NF-κB antagonist reporter assay (NF-κB GRE-luciferase, HEK293 cells); assay type: cell-based;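 note: reporter cells carry native NF-κB receptor with firefly luciferase under upstream response elements, with a vehicle control included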
# [4] = molecular target: T3, Nrf2 (Homo sapiens, UniProt Q16236); test: Nrf2 agonist reporter assay (native receptor, ARE-luciferase, CV1 cells); assay type: cell-based; parameters: comprising either the native receptor (Nrf2 and NF-κB); expressed in transfected cells; host or cells: CV1
# T3 sequence (Q16236 1-605): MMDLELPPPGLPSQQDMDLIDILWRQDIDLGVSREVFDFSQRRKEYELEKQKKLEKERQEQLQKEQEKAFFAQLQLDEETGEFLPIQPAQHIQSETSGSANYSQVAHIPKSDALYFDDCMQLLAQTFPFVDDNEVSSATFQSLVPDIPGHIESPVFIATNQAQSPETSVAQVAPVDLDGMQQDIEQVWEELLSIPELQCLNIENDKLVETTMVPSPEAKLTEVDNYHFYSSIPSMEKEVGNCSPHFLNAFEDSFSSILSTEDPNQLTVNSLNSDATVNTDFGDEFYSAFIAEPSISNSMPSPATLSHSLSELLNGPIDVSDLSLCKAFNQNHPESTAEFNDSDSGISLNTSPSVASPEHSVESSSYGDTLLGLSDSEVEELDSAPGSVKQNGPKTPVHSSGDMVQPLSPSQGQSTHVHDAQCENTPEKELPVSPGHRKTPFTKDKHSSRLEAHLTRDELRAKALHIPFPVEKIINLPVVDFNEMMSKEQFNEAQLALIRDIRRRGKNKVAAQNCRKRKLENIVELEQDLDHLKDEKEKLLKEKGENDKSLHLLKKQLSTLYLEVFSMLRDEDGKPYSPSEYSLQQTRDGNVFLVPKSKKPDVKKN
# [5] = test system: NF-κB reporter cells; test: Live cell multiplex assay in the NF-κB antagonist assay; assay type: cell-based, human
# Experimental: A vehicle control was prepared.
# [6] = molecular target: T4, human PPARα (Homo sapiens, UniProt Q07869); test: PPARα agonist reporter assay (Gal4 hybrid receptor, luciferase, CHO cells); assay type: cell-based
# T4 construct: expressed in transfected cells; host or cells: CHO
# T4 sequence (Q07869 239-466 limits assumed): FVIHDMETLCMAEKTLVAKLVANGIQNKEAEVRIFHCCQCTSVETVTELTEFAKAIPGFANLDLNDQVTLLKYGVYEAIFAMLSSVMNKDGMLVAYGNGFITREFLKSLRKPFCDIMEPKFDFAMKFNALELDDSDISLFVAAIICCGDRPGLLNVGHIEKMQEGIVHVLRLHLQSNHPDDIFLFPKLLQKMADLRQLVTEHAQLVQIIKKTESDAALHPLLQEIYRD
structure (smiles),measurement,setting,value
"COc1cc(/C=C/C(=O)CC(=O)/C=C/c2ccc(O)c(OC)c2)ccc1O [Curcumin, curcumin]",PPARδ Fold-Activation,[1]; 0.007 μg/ml active ingredient,1.2 fold
same,PPARδ Fold-Activation,[1]; 0.022 μg/ml active ingredient,1.2 fold
same,PPARδ Fold-Activation,[1]; 0.067 μg/ml active ingredient,1.0 fold
same,PPARδ Fold-Activation,[1]; 0.20 μg/ml active ingredient,1.2 fold
same,PPARδ Fold-Activation,[1]; 0.60 μg/ml active ingredient,1.3 fold
same,PPARδ Fold-Activation,[1]; 1.81 μg/ml active ingredient,1.0 fold
same,PPARγ Fold-Activation,[2]; 0.007 μg/ml active ingredient,1.0 fold
same,PPARγ Fold-Activation,[2]; 0.022 μg/ml active ingredient,1.0 fold
same,PPARγ Fold-Activation,[2]; 0.067 μg/ml active ingredient,0.95 fold
same,PPARγ Fold-Activation,[2]; 0.20 μg/ml active ingredient,0.96 fold
same,PPARγ Fold-Activation,[2]; 0.60 μg/ml active ingredient,0.90 fold
same,PPARγ Fold-Activation,[2]; 1.81 μg/ml active ingredient,1.1 fold
same,NF-κB % Inhibition,[3]; 0.007 μg/ml active ingredient,−10%
same,NF-κB % Inhibition,[3]; 0.022 μg/ml active ingredient,−3.4%
same,NF-κB % Inhibition,[3]; 0.067 μg/ml active ingredient,−0.29%
same,NF-κB % Inhibition,[3]; 0.20 μg/ml active ingredient,22%
same,NF-κB % Inhibition,[3]; 0.60 μg/ml active ingredient,30%
same,NF-κB % Inhibition,[3]; 1.81 μg/ml active ingredient,51** %
same,antagonist activity against human NF-κB,[3]; at the concentrations tested,very low-level antagonist activity
same,Nrf2 Fold-Activation,[4]; 0.007 μg/ml active ingredient,1.6 fold
same,Nrf2 Fold-Activation,[4]; 0.022 μg/ml active ingredient,1.7 fold
same,Nrf2 Fold-Activation,[4]; 0.067 μg/ml active ingredient,1.4 fold
same,Nrf2 Fold-Activation,[4]; 0.20 μg/ml active ingredient,0.96 fold
same,Nrf2 Fold-Activation,[4]; 0.60 μg/ml active ingredient,1.0 fold
same,Nrf2 Fold-Activation,[4]; 1.81 μg/ml active ingredient,1.6 fold
same,NF-κB % Live Cell,[5]; 0.007 μg/ml active ingredient,105%
same,NF-κB % Live Cell,[5]; 0.022 μg/ml active ingredient,105%
same,NF-κB % Live Cell,[5]; 0.067 μg/ml active ingredient,106%
same,NF-κB % Live Cell,[5]; 0.20 μg/ml active ingredient,105%
same,NF-κB % Live Cell,[5]; 0.60 μg/ml active ingredient,99%
same,NF-κB % Live Cell,[5]; 1.81 μg/ml active ingredient,97%
same,PPARα Fold-Activation,[6]; 0.007 μg/ml active ingredient,1.3 fold
same,PPARα Fold-Activation,[6]; 0.022 μg/ml active ingredient,1.3 fold
same,PPARα Fold-Activation,[6]; 0.067 μg/ml active ingredient,1.3 fold
same,PPARα Fold-Activation,[6]; 0.20 μg/ml active ingredient,1.1 fold
same,PPARα Fold-Activation,[6]; 0.60 μg/ml active ingredient,1.0 fold
same,PPARα Fold-Activation,[6]; 1.81 μg/ml active ingredient,0.86 fold
"COc1ccc([C@@H]2CC(=O)c3c(O)cc(O)cc3O2)cc1O [Hesperetin, (S)-2,3-Dihydro-5,7-dihydroxy-2-(3-hydroxy-4-methoxyphenyl)-4H-1-benzopyran-4-one]",PPARδ Fold-Activation,[1]; 0.043 μg/ml active ingredient,1.1 fold
same,PPARδ Fold-Activation,[1]; 0.389 μg/ml active ingredient,1.0 fold
same,PPARδ Fold-Activation,[1]; 1.167 μg/ml active ingredient,1.1 fold
same,PPARδ Fold-Activation,[1]; 3.5 μg/ml active ingredient,0.89 fold
same,PPARγ Fold-Activation,[2]; 0.043 μg/ml active ingredient,1.0 fold
same,PPARγ Fold-Activation,[2]; 0.389 μg/ml active ingredient,1.1 fold
same,PPARγ Fold-Activation,[2]; 1.167 μg/ml active ingredient,1.1 fold
same,PPARγ Fold-Activation,[2]; 3.5 μg/ml active ingredient,0.55 fold
same,NF-κB % Inhibition,[3]; 0.043 μg/ml active ingredient,−11%
same,NF-κB % Inhibition,[3]; 0.389 μg/ml active ingredient,−2.1%
same,NF-κB % Inhibition,[3]; 1.167 μg/ml active ingredient,14%
same,NF-κB % Inhibition,[3]; 3.5 μg/ml active ingredient,39%
same,Nrf2 Fold-Activation,[4]; 0.043 μg/ml active ingredient,1.4 fold
same,Nrf2 Fold-Activation,[4]; 0.389 μg/ml active ingredient,1.3 fold
same,Nrf2 Fold-Activation,[4]; 1.167 μg/ml active ingredient,1.5 fold
same,Nrf2 Fold-Activation,[4]; 3.5 μg/ml active ingredient,0.94 fold
same,NF-κB % Live Cell,[5]; 0.043 μg/ml active ingredient,98%
same,NF-κB % Live Cell,[5]; 0.389 μg/ml active ingredient,99%
same,NF-κB % Live Cell,[5]; 1.167 μg/ml active ingredient,98%
same,NF-κB % Live Cell,[5]; 3.5 μg/ml active ingredient,96%
same,PPARα Fold-Activation,[6]; 0.043 μg/ml active ingredient,1.4 fold
same,PPARα Fold-Activation,[6]; 0.389 μg/ml active ingredient,1.2 fold
same,PPARα Fold-Activation,[6]; 1.167 μg/ml active ingredient,1.0 fold
same,PPARα Fold-Activation,[6]; 3.5 μg/ml active ingredient,0.79 fold

# — patent US20180008573A1, “METHODS AND COMPOSITIONS FOR REDUCING DAMAGE ASSOCIATED WITH OXIDATIVE PHOSPHORYLATION” (USANA Health Sciences, Inc., priority 2016, published 2018)
